{"source": "patent US5140014A", "about": "(Abbott Laboratories, priority 1989, dated 1992)", "assay_in_all_cases": "in vitro antibacterial activity, agar dilution method (MIC)", "assay_type_in_all_cases": "cell-based", "key": {"[1]": {"tested_on": "Pseudomonas Cepacia", "settings": "Burkholderia cepacia; strain 296I; BHI agar, 20-24 hours; read-out: MIC", "method": "(§1) Compounds 1 to 8 were evaluated for antibacterial activity by the agar dilution method to determine the degree of in vitro susceptibility of aerobic microorganisms to antimicrobial agents. The test medium was Brain Heart Infusion (BHI) agar. The antibacterial agent was dissolved at a concentration of 2,000 ug/mL. Test plates were then prepared, usually 12 two-fold dilutions. After adding the sample to the plates, 10 mL of cooled BHI agar medium was added to each plate. The organisms were grown overnight in BHI broth (Difco) in a 35°-37° C. incubator.\n(§2) On the day of testing, the bacterial suspensions were diluted 1:100 in sterile distilled water, except for a few slow-growing organisms (usually Micrococcus and Streptococcus) which were diluted 1:10. The plate was then inoculated with approximately 10^4 organisms. This was incubated in a 35°-37° C. incubator for 20-24 hours. Thereafter, the plates were read to determine the minimum inhibitory concentration (MIC) defined as the lowest concentration of drug yielding no growth on the plate, a slight haze, or sparsely isolated colonies on the inoculum spot as compared to the growth control."}, "[2]": {"tested_on": "Escherichia Coli", "settings": "Escherichia coli, BHI agar, 20-24 hours, read-out: MIC", "method": "as §1, §2"}, "[3]": {"tested_on": "Acinetobacter Sp", "settings": "Acinetobacter, strain CMX 669; BHI agar, 20-24 hours; read-out: MIC", "method": "(§3) The test medium was Brain Heart Infusion (BHI) agar. The antibacterial agent was dissolved at a concentration of 2,000 ug/mL. Test plates were then prepared, usually 12 two-fold dilutions. After adding the sample to the plates, 10 mL of cooled BHI agar medium was added to each plate. The organisms were grown overnight in BHI broth (Difco) in a 35°-37° C. incubator.\nas §2"}, "[4]": {"tested_on": "Pseudomonas Aeruginosa", "settings": "Pseudomonas aeruginosa, BHI agar, 20-24 hours, read-out: MIC", "method": "as §3, §2"}, "[5]": {"tested_on": "Streptococcus Agalactiae", "settings": "Streptococcus agalactiae, strain CMX 508; BHI agar, 20-24 hours; read-out: MIC", "method": "as §3, §2"}, "[6]": {"tested_on": "Enterobacter Aerogenes", "settings": "Klebsiella aerogenes, ATCC13048, strain ATCC 13048; BHI agar, 20-24 hours; read-out: MIC", "method": "as §3, §2"}, "[7]": {"tested_on": "Haemophilus Influenzae", "settings": "Haemophilus influenzae, BHI agar, 20-24 hours", "method": "as §3, §2"}, "[8]": {"tested_on": "Staphylococcus Aureus", "settings": "Staphylococcus aureus, BHI agar, 20-24 hours, read-out: MIC", "method": "as §3, §2"}, "[9]": {"tested_on": "Providencia Stuartii", "settings": "Providencia stuartii; strain CMX 640; BHI agar, 20-24 hours; read-out: MIC", "method": "as §3, §2"}, "[10]": {"tested_on": "Streptococcus Bovis", "settings": "Streptococcus equinus, strain A5169; BHI agar, 20-24 hours", "method": "as §3, §2"}, "[11]": {"tested_on": "Staphylococcus Epidermidis", "settings": "Staphylococcus epidermidis, strain 3519; BHI agar, 20-24 hours; read-out: MIC", "method": "as §3, §2"}, "[12]": {"tested_on": "Klebsiella Pneumoniae", "settings": "Klebsiella pneumoniae, ATCC8045, strain ATCC 8045; BHI agar, 20-24 hours; read-out: MIC", "method": "as §3, §2"}, "[13]": {"tested_on": "Streptococcus Pyogenes", "settings": "Streptococcus pyogenes, BHI agar, 20-24 hours, read-out: MIC", "method": "as §3, §2"}, "[14]": {"tested_on": "Enterococcus Faecium", "settings": "Enterococcus faecium, ATCC8043, strain ATCC 8043; BHI agar, 20-24 hours; read-out: MIC", "method": "as §3, §2"}, "[15]": {"tested_on": "Micrococcus Luteus", "settings": "Micrococcus luteus, BHI agar, 20-24 hours, read-out: MIC", "method": "as §3, §2"}}, "note": "Read-outs that look alike come from different tables or passages of the source."}
{"smiles": "CCC1OC(=O)CC(O)C(C)C(OC2OC(C)CC(N(C)C)C2O)C(CC=O)CC(C)C(N(C)C)CCC(C)=CC1COC(C)=O", "note": "(stereo not drawn) [Example 8, [9S]-23-O-Acetyl-9-deoxo-4'-deoxy-10,11-dihydro-9-N,N-dimethylamino-5-O-mycaminosyl-tylonide]", "values": [{"measurement": "MIC", "setting": "[1]", "result": "> 100", "unit": "µg/mL"}, {"measurement": "MIC", "setting": "[2]; strain DC-2", "result": 25, "unit": "µg/mL"}, {"measurement": "MIC", "setting": "[2]; strain H560", "result": 6.2, "unit": "µg/mL"}, {"measurement": "MIC", "setting": "[2]; strain JUHL", "result": 50, "unit": "µg/mL"}, {"measurement": "MIC", "setting": "[2]; strain KNK 437", "result": 25, "unit": "µg/mL"}, {"measurement": "MIC", "setting": "[2]; strain SS", "result": 0.2, "unit": "µg/mL"}, {"measurement": "MIC", "setting": "[3]", "result": 12.5, "unit": "µg/mL"}, {"measurement": "MIC", "setting": "[4]; strain A5007", "result": "> 100", "unit": "µg/mL"}, {"measurement": "MIC", "setting": "[4]; strain BMH10", "result": "> 100", "unit": "µg/mL"}, {"measurement": "MIC", "setting": "[4]; strain K799/61", "result": 6.2, "unit": "µg/mL"}, {"measurement": "MIC", "setting": "[4]; strain K799/WT", "result": "> 100", "unit": "µg/mL"}, {"measurement": "MIC", "setting": "[5]", "result": 0.39, "unit": "µg/mL"}, {"measurement": "MIC", "setting": "[6]", "result": 50, "unit": "µg/mL"}, {"measurement": "MIC", "setting": "[7]; ATCC9795, strain ATCC 9795, read-out: MIC", "result": 2, "unit": "µg/mL"}, {"measurement": "MIC", "setting": "[7]; ATCC10211, strain ATCC 10211, read-out: MIC", "result": 2, "unit": "µg/mL"}, {"measurement": "MIC", "setting": "[7]; ATCC19418, strain ATCC 19418, read-out: MIC", "result": 2, "unit": "µg/mL"}, {"measurement": "MIC", "setting": "[7]; ATCC43095, strain ATCC 43095, read-out: MIC", "result": 2, "unit": "µg/mL"}, {"measurement": "MIC", "setting": "[7]; strain 503B, read-out: MIC", "result": 2, "unit": "µg/mL"}, {"measurement": "MIC", "setting": "[7]; strain 504, read-out: MIC", "result": 2, "unit": "µg/mL"}, {"measurement": "MIC", "setting": "[7]; strain 519A", "result": 1, "unit": "µg/mL"}, {"measurement": "MIC", "setting": "[7]; strain 566A, read-out: MIC", "result": 2, "unit": "µg/mL"}, {"measurement": "MIC", "setting": "[7]; strain 588A, read-out: MIC", "result": 2, "unit": "µg/mL"}, {"measurement": "MIC", "setting": "[7]; strain 632A, read-out: MIC", "result": 2, "unit": "µg/mL"}, {"measurement": "MIC", "setting": "[7]; strain 667A, read-out: MIC", "result": 2, "unit": "µg/mL"}, {"measurement": "MIC", "setting": "[7]; strain 747C, read-out: MIC", "result": 2, "unit": "µg/mL"}, {"measurement": "MIC", "setting": "[7]; strain 751", "result": 8, "unit": "µg/mL"}, {"measurement": "MIC", "setting": "[7]; strain 1177, read-out: MIC", "result": 0.25, "unit": "µg/mL"}, {"measurement": "MIC", "setting": "[7]; strain 1435", "result": 1, "unit": "µg/mL"}, {"measurement": "MIC", "setting": "[7]; strain DILL AMP R, read-out: MIC", "result": 2, "unit": "µg/mL"}, {"measurement": "MIC", "setting": "[7]; strain SOL AMP R, read-out: MIC", "result": 2, "unit": "µg/mL"}, {"measurement": "MIC", "setting": "[7]; strain SPK AMP R, read-out: MIC", "result": 2, "unit": "µg/mL"}, {"measurement": "MIC", "setting": "[8]; ATCC6538P, strain ATCC 6538P", "result": 3.1, "unit": "µg/mL"}, {"measurement": "MIC", "setting": "[8]; NCTC10649, strain NCTC 10649", "result": 0.78, "unit": "µg/mL"}, {"measurement": "MIC", "setting": "[8]; strain 45", "result": 3.1, "unit": "µg/mL"}, {"measurement": "MIC", "setting": "[8]; strain 45 RAR2", "result": 3.1, "unit": "µg/mL"}, {"measurement": "MIC", "setting": "[8]; strain 642A", "result": 3.1, "unit": "µg/mL"}, {"measurement": "MIC", "setting": "[8]; strain A5177", "result": 1.56, "unit": "µg/mL"}, {"measurement": "MIC", "setting": "[8]; strain CMX 553", "result": 3.1, "unit": "µg/mL"}, {"measurement": "MIC", "setting": "[9]", "result": "> 100", "unit": "µg/mL"}, {"measurement": "MIC", "setting": "[10]", "result": 0.1, "unit": "µg/mL"}, {"measurement": "MIC", "setting": "[11]", "result": 1.56, "unit": "µg/mL"}, {"measurement": "MIC", "setting": "[12]", "result": 50, "unit": "µg/mL"}, {"measurement": "MIC", "setting": "[13]; strain 930 CONST", "result": 50, "unit": "µg/mL"}, {"measurement": "MIC", "setting": "[13]; strain 2548 INDUC", "result": 1.56, "unit": "µg/mL"}, {"measurement": "MIC", "setting": "[13]; strain EES61", "result": 0.78, "unit": "µg/mL"}, {"measurement": "MIC", "setting": "[14]", "result": 1.56, "unit": "µg/mL"}, {"measurement": "MIC", "setting": "[15]; ATCC4698, strain ATCC 4698", "result": 0.78, "unit": "µg/mL"}, {"measurement": "MIC", "setting": "[15]; ATCC9341, strain ATCC 9341", "result": 0.2, "unit": "µg/mL"}]}
